According to ChEMBL document CHEMBL4651402, “Screening of ~5500 FDA-approved drugs and clinical candidates for anti-SARS-CoV-2 activity” (2021):

Test system: SARS-CoV-2
Assay: microbe, parasite or virus in culture
Settings: Severe acute respiratory syndrome coronavirus 2, Vero C1008, 48 h

| Compound | IC50 [µM] | IC50 (read-out: pIC50 (converted)) [µM] |
| --- | --- | --- |
| COc1c2occc2c(OC)c2c(=O)cc(C)oc12 [KHELLIN] | > 20 | > 20 |
| Clc1ccc(CO[C@H](Cn2ccnc2)c2ccc(Cl)cc2Cl)c(Cl)c1 | > 20 | > 20 |
| OCC(O)CO [GLYCERIN] | > 20 | > 20 |
| CC(=O)[C@H]1CC[C@H]2[C@@H]3C=CC4=CC(=O)CC[C@@]4(C)[C@@H]3CC[C@]12C [DYDROGESTERONE] | > 20 | > 20 |
| C[C@H](CCC(=O)O)[C@H]1CC[C@H]2[C@@H]3[C@@H](O)C[C@@H]4C[C@H](O)CC[C@]4(C)[C@H]3CC[C@]12C [URSODIOL] | > 20 | > 20 |
| CCCCNC(=O)OCC(C)(CCC)COC(N)=O (stereo not given) [TYBAMATE] | > 20 | > 20 |
| CC(C)(O)c1ccn2c(-c3ccc(F)c(-c4ccc(F)cc4C#N)c3)cnc2c1F | > 20 | > 20 |
| COc1ccc(CCC(=O)c2c(O)cc(O[C@@H]3O[C@H](CO)[C@@H](O)[C@H](O)[C@H]3O[C@@H]3O[C@@H](C)[C@H](O)[C@@H](O)[C@H]3O)cc2O)cc1O [NEOHESPERIDIN DIHYDROCHALCONE] | > 20 | > 20 |
| CCCN(CCC)C(=O)Cc1c(-c2ccc(Cl)cc2)nc2ccc(Cl)cn12 [ALPIDEM] | > 20 | > 20 |
| CC(C)(C)NC[C@H](O)COc1cccc2c1CCCC2=O [LEVOBUNOLOL] | > 20 | > 20 |
| Cc1nnc(SCC2=C(C(=O)O)N3C(=O)[C@@H](NC(=O)Cn4cnnn4)[C@H]3SC2)s1 [CEFAZOLIN] | > 20 | > 20 |
| COCCNc1cc(NC(=O)N2CCCc3cc(CN4CCN(C)CC4=O)c(C=O)nc32)ncc1C#N [FGF401] | > 20 | > 20 |
| N=C(N)Nc1ccc(C(=O)Oc2ccc3cc(C(=N)N)ccc3c2)cc1 [NAFAMOSTAT] | > 20 | > 20 |
| C=CCN1CCC[C@H]1CNC(=O)c1cc(CCCF)cc(OC)c1OC [FALLYPRIDE] | > 20 | > 20 |
| CC(C)=CCN1CC[C@]2(C)c3cc(O)ccc3C[C@H]1[C@H]2C [(+)-PENTAZOCINE] | > 20 | > 20 |
| CC(=O)OCC1OC(n2ccc(=O)[nH]c2=O)C(OC(C)=O)C1OC(C)=O (stereo not given) | > 20 | > 20 |
| O=C(O)[C@H]1CCCNC1 [(S)-NIPECOTIC ACID] | > 20 | > 20 |
| Cc1c(-c2cnccn2)ssc1=S [OLTIPRAZ] | > 20 | > 20 |
| CCOC(=O)c1c(C)cc(O)cc1O [ORSELLINIC ACID, ETHYL ESTER] | > 20 | > 20 |
| Clc1ccc(C2(Cn3cncn3)OCCO2)c(Cl)c1 [AZACONAZOLE] | > 20 | > 20 |

| Compound | IC50 [µM] | IC50 (read-out: pIC50 (converted)) [µM] |
| --- | --- | --- |
| CN(C)CCOC(=O)COc1ccc(Cl)cc1 [MECLOFENOXATE] | > 20 | > 20 |
| CC(=O)N(O)CCCCCNC(=O)CCC(=O)N(O)CCCCCNC(=O)CCC(=O)N(O)CCCCCN [DEFEROXAMINE] | > 20 | > 20 |
| Cc1c(O)c(=O)n(-c2ccccc2)n1C | > 20 | > 20 |
| CCc1nc2c(C)nc(C)cc2n1-c1ccc(CCNC(=O)NS(=O)(=O)c2ccc(C)cc2)cc1 [GRAPIPRANT] | > 20 | > 20 |
| COC(=O)C1=C(C)NC(C)=C(C(=O)OCC(C)C)C1c1ccccc1[N+](=O)[O-] (stereo not given) [NISOLDIPINE] | > 20 | > 20 |
| N=C(N)NCC1COc2ccccc2O1 (stereo not given) [GUANOXAN] | > 20 | > 20 |
| Nc1c2c(nc3ccccc13)CCCC2O (stereo not given) [VELNACRINE] | > 20 | > 20 |
| CN(C(=O)c1ccc(F)cc1C(F)(F)F)C1CCN(c2nnc(-c3ccnn3C)c3ccccc23)CC1 [TALADEGIB] | > 20 | > 20 |
| COc1ccc2c(c1OC)C13CCN(C)C(C2)C1(O)CCC(O)C3 (stereo not given) | > 20 | > 20 |
| CCCCCCCC(=O)O [OCTANOIC ACID] | > 20 | > 20 |
| O=C(CN1C(=O)c2ccccc2S1(=O)=O)Nc1ccc(O)cc1 | > 20 | > 20 |
| CC1(C)O[C@@H]2[C@@H](CO[C@@]3(COS(N)(=O)=O)OC(C)(C)O[C@@H]23)O1 [TOPIRAMATE] | > 20 | > 20 |
| CN1CCc2cc(Cl)c(O)cc2[C@H]2c3ccccc3CC[C@@H]21 [ECOPIPAM] | > 20 | > 20 |
| CC(=O)OC1CCC2C3CCC4C/C(=N\Oc5ccc([N+](=O)[O-])cc5)C(Cl)CC4(C)C3CCC12C (stereo not given) | > 20 | > 20 |
| CC(=O)OCC(=O)[C@H]1CC[C@H]2[C@@H]3CCC4=CC(=O)CC[C@]4(C)[C@H]3CC[C@]12C [DESOXYCORTICOSTERONE ACETATE] | > 20 | > 20 |
| C=CCC(N)c1ccccc1-c1noc2ccccc12 (stereo not given) | > 20 | > 20 |
| COc1cc2c(c(OC)c1OC)-c1ccc(O)c(=O)cc1C(N)CC2 (stereo not given) | > 20 | > 20 |
| CC1(C)C[C@@H]1C(=O)N/C(=C\CCCCSC[C@H](N)C(=O)O)C(=O)O [CILASTATIN] | > 20 | > 20 |
| O=C(OCc1ccccc1)c1ccccc1 [BENZYL BENZOATE] | > 20 | > 20 |
| Oc1nc(O)c2cn[nH]c2n1 [OXYPURINOL] | > 20 | > 20 |

| Compound | IC50 [µM] | IC50 (read-out: pIC50 (converted)) [µM] |
| --- | --- | --- |
| COc1ccc2c3c1O[C@H]1[C@@H](O)C=C[C@@]4(O)[C@@H](C2)N(C)CC[C@]314 | > 20 | > 20 |
| O=C(Cc1ccc(-c2ccccc2)cc1)Nc1ccccn1 [DIFENPIRAMIDE] | > 20 | > 20 |
| N[C@@H](Cc1cc(I)c(Oc2cc(I)c(O)c(I)c2)c(I)c1)C(=O)O [LEVOTHYROXINE] | > 20 | > 20 |
| C[N+](C)(C)CCOP(=O)([O-])OC[C@@H](O)CO | > 20 | > 20 |
| CC(C)c1ccc2c(c1)CCC1C(C)(CN)CCCC21C (stereo not given) | > 20 | > 20 |
| CC(O)(C(=O)Nc1ccc(C(=O)c2ccccc2)cc1)C(F)(F)F (stereo not given) | > 20 | > 20 |
| CCCC1C(=O)N2C(N(C)C)=Nc3ccc(C)cc3N2C1=O (stereo not given) [APAZONE] | > 20 | > 20 |
| CC(CCc1ccccc1)NCC(O)c1ccc(O)c(C(N)=O)c1 (stereo not given) [LABETALOL] | > 20 | > 20 |
| O=c1[nH]c(=O)c2ccccc2o1 | > 20 | > 20 |
| CCO[C@@H](Cc1ccc(OCCc2ccc(OS(C)(=O)=O)cc2)cc1)C(=O)O [TESAGLITAZAR] | > 20 | > 20 |
| CN(C(=O)C(Cl)Cl)c1ccc(OC(=O)c2ccco2)cc1 [DILOXANIDE FUROATE] | > 20 | > 20 |
| COc1cc2/c(=N/c3ccc(Br)cc3F)nc[nH]c2cc1OCC1CCN(C)CC1 [VANDETANIB] | > 20 | > 20 |
| C[C@]12CC[C@@H]3c4ccc(O)cc4CC[C@H]3[C@@H]1CC[C@@H]2O [ESTRADIOL] | > 20 | > 20 |
| CC1(C)O[C@@H]2C[C@H]3[C@@H]4CCC5=CC(=O)C=C[C@]5(C)[C@@]4(F)[C@@H](O)C[C@]3(C)[C@]2(C(=O)CO)O1 [TRIAMCINOLONE ACETONIDE] | > 20 | > 20 |
| Clc1ccc(CO/N=C(\Cn2ccnc2)c2ccc(Cl)cc2Cl)c(Cl)c1 [OXICONAZOLE] | > 20 | > 20 |
| COc1ccnc2[nH]cc(C(=O)C(=O)N3CCN(C(=O)c4ccccc4)C[C@H]3C)c12 | > 20 | > 20 |
| CC1=NC(=O)[C@](CCN(C(C)C)C(C)C)(c2ccccc2)[C@H]2CCCCN12 | > 20 | > 20 |
| C[C@]12CC[C@H]3[C@@H](CCC4=CC(=O)CC[C@@]43C)[C@@H]1CC[C@@H]2C(=O)CO [DESOXYCORTICOSTERONE] | > 20 | > 20 |
| Oc1ccc(Cl)cc1Cc1cc(Cl)ccc1O [DICHLOROPHEN] | > 20 | > 20 |
| CCC(C)CCCCC(=O)N[C@@H](CCNCS(=O)(=O)O)C(=O)N[C@H](C(=O)N[C@@H](CCNCS(=O)(=O)O)C(=O)N[C@H]1CCNC(=O)[C@H]([C@@H](C)O)NC(=O)[C@@H](CCNCS(=O)(=O)O)NC(=O)[C@@H](CCNCS(=O)(=O)O)NC(=O)[C@H](CC(C)C)NC(=O)[C@@H](CC(C)C)NC(=O)[C@H](CCNCS(=O)(=O)O)NC1=O)[C@@H](C)O (stereo not given in full) | > 20 | > 20 |
